Some test systems named below: K-562 leukemia; ACHN renal; 786-0 renal; RPMI-8226 leukemia; LOX IMVI melanoma; SK-MEL-2 melanoma; T-47D breast; A498 renal.
Holding throughout (experiment): NCI anticancer screen, dose series, 48 h

The structures appear in SMILES notation. “And” between values parts separate entries of the source, which are not always exact repeats. Equal entries are not always repeated.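 Grown in 96-well plates, cells were treated for 48 hours with each compound at five concentrations. Insufficient inhibition: endpoint recorded as highest concentration tested. Abbreviation: GI50, concentration required for 50% inhibition of growth. At the TGI there is no net growth.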 Bounds are passed on as bounds.

As for `O=S(=O)(O)c1cc(O)c(N=Nc2ccc(O)cc2O)c2ccccc12`, the TGI with K-562 leukemia, in the assay with ACHN renal, with 786-0 renal, in the assay with RPMI-8226 leukemia, with LOX IMVI melanoma and with SK-MEL-2 melanoma was greater than 100 µM in each case.
For `COC(=O)[C@H](Cc1cnc[nH]1)NC(=O)[C@@H](NC(=O)Nc1cc(C(F)(F)F)cc(C(F)(F)F)c1)C(C)C`, the GI50 with K-562 leukemia is 19.2 µM; in the assay with ACHN renal, 17.2 µM; in the assay on 786-0 renal, 18.9 µM; with RPMI-8226 leukemia, 16.1 µM; in the assay with T-47D breast, 12.4 µM; in the assay on A498 renal, 13 µM. Moreover, the TGI with K-562 leukemia was found to be 40.5 µM; in the assay on ACHN renal it was 33.4 µM; in the assay on 786-0 renal, 38.6 µM; in the assay with RPMI-8226 leukemia, 38.9 µM; in the assay with T-47D breast it was 28 µM; in the assay with A498 renal it was 27.3 µM.
With `COc1ccc(-c2nc(-c3ccc(C)cc3)cn3ccnc23)cc1`, the GI50 in the assay with K-562 leukemia was 0.815 µM; in the assay on ACHN renal, 7.58 µM; in the assay with 786-0 renal it was 8.6 µM; with RPMI-8226 leukemia it was 2.89 µM; with T-47D breast it was greater than 50 µM; with LOX IMVI melanoma, 3.43 µM. The GI50 with SK-MEL-2 melanoma is 20.8 µM. Further, the TGI in the assay on K-562 leukemia is 3.92 µM; in the assay with ACHN renal it was greater than 50 µM; in the assay on 786-0 renal, 45.6 µM; in the assay on RPMI-8226 leukemia, greater than 50 µM; in the assay on T-47D breast, greater than 50 µM; with LOX IMVI melanoma, 13.8 µM. For the same compound, in the assay with SK-MEL-2 melanoma, the TGI was greater than 50 µM.
Regarding `Nc1ccc(C2=CC(c3ccc(Cl)cc3)N3C=CSC3=N2)cc1` (stereo unspecified), the GI50 in the assay with ACHN renal was 2.02 µM; in the assay on 786-0 renal it was 6.74 µM; in the assay on T-47D breast, 4.76 µM; in the assay on A498 renal, 6.17 µM; in the assay with LOX IMVI melanoma, 2.34 µM; with SK-MEL-2 melanoma it was 26.3 µM. For the same compound, the TGI stood at 4.46 µM in the assay on ACHN renal; 25.7 µM in the assay on 786-0 renal; 27.7 µM in the assay on T-47D breast; 23.8 µM in the assay on A498 renal; 5.65 µM in the assay on LOX IMVI melanoma; 59.3 µM in the assay on SK-MEL-2 melanoma.
Regarding `COc1ccc2c(c1)c(-c1nc(-c3c[nH]c4ccncc34)cs1)cn2C`, the GI50 in the assay on K-562 leukemia was 0.716 µM; in the assay on ACHN renal, 1.77 µM; with 786-0 renal, 1.7 µM; with RPMI-8226 leukemia it was 1.83 µM; in the assay on A498 renal, 1.65 µM; in the assay on SK-MEL-2 melanoma it was 1.84 µM. Moreover, the TGI was 2.47 µM in the assay on K-562 leukemia; 3.17 µM in the assay with ACHN renal; 3.24 µM in the assay on 786-0 renal; 3.83 µM in the assay on RPMI-8226 leukemia; 3.09 µM in the assay with A498 renal; 3.4 µM in the assay with SK-MEL-2 melanoma.
On to `C=C/C=C/[C@@H](O)CC(=C)C[C@H]1OC2[C@H](C)[C@@H](OC(=O)C[C@H]3C[C@H](OC(C)=O)C[C@@]4(C[C@@](C)(O)C[C@H](CC(=C)[C@@H](C)[C@H](OC(C)=O)[C@H](C)C(=O)C[C@@H]5C[C@H](OC)CC6(C[C@@H](O)C[C@H](/C=C\CCC[C@H]7O[C@](O)(C=C[C@H]7C)[C@H]2O)O6)O5)O4)O3)[C@@H]1O`, for which the TGI in the assay with K-562 leukemia was greater than 25 µM; in the assay on ACHN renal, greater than 25 µM; with 786-0 renal, greater than 25 µM; with RPMI-8226 leukemia it was 0.0821 µM; in the assay on T-47D breast, greater than 25 µM; in the assay with A498 renal, 0.00544 µM. Further, the TGI with SK-MEL-2 melanoma amounted to 0.00308 µM. In addition, the GI50 with ACHN renal was 0.00472 µM and 0.00856 µM; in the assay with 786-0 renal, 0.000572 µM and 0.0025 µM; in the assay on RPMI-8226 leukemia, 0.0025 µM; in the assay with A498 renal, 0.000388 µM and 0.0025 µM; in the assay on SK-MEL-2 melanoma, 0.0025 µM.
`COc1ccc(CN2c3ccccc3Sc3ccccc32)c(C(F)(F)F)c1`: the GI50 in the assay with K-562 leukemia was 0.395 µM; in the assay with ACHN renal it was 0.666 µM; in the assay with 786-0 renal it was 9.05 µM; in the assay on RPMI-8226 leukemia it was 3 µM; in the assay with A498 renal it was 0.372 µM; in the assay with LOX IMVI melanoma it was 0.832 µM. Besides, in the assay on SK-MEL-2 melanoma, the GI50 was 1.18 µM. For the same compound, the TGI is greater than 100 µM in the assay with K-562 leukemia; greater than 100 µM in the assay on ACHN renal; greater than 100 µM in the assay on 786-0 renal; 31.5 µM in the assay with RPMI-8226 leukemia; greater than 100 µM with A498 renal; 33.3 µM in the assay with LOX IMVI melanoma. The same compound gave a TGI in the assay on SK-MEL-2 melanoma of 14.7 µM.
As for `CNC(=O)c1c(NC(=O)c2ccc(C(C)(C)C)cc2)sc2c(CN(C)C)c(O)ccc12`, the GI50 was 0.317 µM with K-562 leukemia, 1.74 µM in the assay with 786-0 renal, 1.13 µM in the assay with LOX IMVI melanoma and 2.1 µM in the assay with SK-MEL-2 melanoma. Further, the TGI was 1.32 µM in the assay on K-562 leukemia, 3.3 µM in the assay with 786-0 renal, 2.38 µM with LOX IMVI melanoma and 4.28 µM with SK-MEL-2 melanoma.
As to `COc1ccc(Cc2coc3ccccc3c2=O)cc1OC`, the TGI in the assay on K-562 leukemia, in the assay with ACHN renal, in the assay on 786-0 renal, in the assay on RPMI-8226 leukemia, in the assay on T-47D breast and in the assay with LOX IMVI melanoma was greater than 100 µM each time. The TGI in the assay on SK-MEL-2 melanoma is greater than 100 µM.
As for `NC(=O)c1cc([N+](=O)[O-])c(Cl)c([N+](=O)[O-])c1Cl`, the GI50 in the assay on ACHN renal is 1.63 µM; in the assay with 786-0 renal, 1.44 µM; with RPMI-8226 leukemia, 0.661 µM; in the assay on A498 renal, 1.9 µM; in the assay on LOX IMVI melanoma, 0.33 µM; with SK-MEL-2 melanoma it was 1.71 µM. The TGI was 3.71 µM in the assay with ACHN renal; 2.87 µM in the assay with 786-0 renal; 3.61 µM with RPMI-8226 leukemia; 4.58 µM with A498 renal; 1.16 µM in the assay on LOX IMVI melanoma; 3.16 µM in the assay on SK-MEL-2 melanoma.
Turning to `CC1=C(c2ccccc2)C(O)(c2ccccc2)C(C)C1=O` (stereo unspecified), the GI50 in the assay with K-562 leukemia was 4.71 µM; in the assay with ACHN renal it was 35.6 µM; in the assay on 786-0 renal, 18.9 µM; with T-47D breast it was 23.1 µM; in the assay on LOX IMVI melanoma, 15.3 µM; in the assay on SK-MEL-2 melanoma, 29.7 µM. Besides, the TGI with K-562 leukemia, with ACHN renal, in the assay with 786-0 renal, with T-47D breast, in the assay with LOX IMVI melanoma and with SK-MEL-2 melanoma was greater than 100 µM in each case.
In the case of `O=C([CH-]C(=O)c1ccccc1)c1ccccc1.[CH-]1CCCCC1.[CH-]1CCCCC1.[CH-]1CCCCC1.[Sn+4]`, the GI50 with K-562 leukemia was 2.31 µM; with ACHN renal it was 13.8 µM; in the assay with 786-0 renal, 4.25 µM; in the assay on RPMI-8226 leukemia it was 2.32 µM; with A498 renal it was 15.4 µM; with LOX IMVI melanoma it was 4.61 µM. Further, the GI50 in the assay with SK-MEL-2 melanoma was 3.39 µM. In addition, the TGI stood at 6.15 µM in the assay with K-562 leukemia; 31.9 µM in the assay with ACHN renal; 15.1 µM in the assay on 786-0 renal; 5.22 µM with RPMI-8226 leukemia; 28.9 µM in the assay with A498 renal; 18.9 µM in the assay with LOX IMVI melanoma. For the same compound, the TGI in the assay with SK-MEL-2 melanoma was 11.9 µM.
On to `O=C(CCCN1CCC(O)(c2ccc(Cl)cc2)CC1)c1ccc(F)cc1`, for which the TGI in the assay on K-562 leukemia is greater than 100 µM; with ACHN renal, greater than 100 µM; with 786-0 renal it was 39.8 µM; in the assay with RPMI-8226 leukemia, greater than 100 µM; in the assay on T-47D breast, greater than 100 µM; in the assay with LOX IMVI melanoma, 33.1 µM. In addition, the TGI in the assay on SK-MEL-2 melanoma came to 39.5 µM.
Turning to `Cc1cc2c(cc1Cl)S/C(=C/C(=O)O)C(Nc1ccc3ncsc3c1)=NS2(=O)=O`, the GI50 with K-562 leukemia is 42.8 µM; with ACHN renal, greater than 52.6 µM; with 786-0 renal, 8.57 µM; in the assay with RPMI-8226 leukemia, 1.68 µM; in the assay on T-47D breast, 22.1 µM; in the assay with LOX IMVI melanoma, 22.4 µM. In addition, the GI50 in the assay on SK-MEL-2 melanoma was greater than 29.3 µM. Besides, the TGI in the assay on K-562 leukemia is greater than 100 µM; in the assay on ACHN renal, greater than 68 µM; in the assay with 786-0 renal, 22.1 µM; with RPMI-8226 leukemia it was 19.3 µM; with T-47D breast it was greater than 54.8 µM; in the assay on LOX IMVI melanoma it was 62.9 µM. In the assay with SK-MEL-2 melanoma, this compound returned a TGI greater than 61.3 µM.
Turning to `COc1cc(/C=C/C(=O)/C=C/c2ccc(-n3ccnc3C)cc2)ccc1O`, the GI50 with K-562 leukemia is 3.32 µM; in the assay on ACHN renal, 3.04 µM; with 786-0 renal, 2.11 µM; in the assay on RPMI-8226 leukemia, 1.84 µM; with T-47D breast it was 3.12 µM; in the assay with A498 renal it was 10.4 µM. In the assay on SK-MEL-2 melanoma, the GI50 was 26 µM. The TGI with K-562 leukemia is greater than 100 µM; in the assay on ACHN renal, 10.4 µM; in the assay on 786-0 renal, 5.21 µM; in the assay on RPMI-8226 leukemia, 6.1 µM; in the assay with T-47D breast it was 15.1 µM; with A498 renal it was 23.7 µM. Further, the TGI in the assay with SK-MEL-2 melanoma stood at 84.2 µM.
`Cc1csc2[n+]1-c1ccccc1N(C(=O)Nc1ccccc1)C(C)C2` (stereo unspecified): the GI50 with K-562 leukemia was greater than 100 µM; in the assay with ACHN renal, 55.5 µM; in the assay on 786-0 renal it was 17.7 µM; in the assay with RPMI-8226 leukemia it was 67.5 µM; in the assay on T-47D breast, greater than 100 µM; in the assay with LOX IMVI melanoma, 21.6 µM. In addition, the GI50 with SK-MEL-2 melanoma is greater than 100 µM. Further, the TGI in the assay with K-562 leukemia is greater than 100 µM; in the assay with ACHN renal, greater than 100 µM; with 786-0 renal it was 35.8 µM; in the assay on RPMI-8226 leukemia, greater than 100 µM; in the assay on T-47D breast, greater than 100 µM; in the assay on LOX IMVI melanoma, 48.5 µM. Moreover, the TGI in the assay on SK-MEL-2 melanoma was greater than 100 µM.
With `CCCCCCCCCCCCCC[N+](C)(C)CCCCCCCCCCCCCC`, the GI50 in the assay with K-562 leukemia is 2.89 µM; in the assay with ACHN renal, 2.62 µM; in the assay on 786-0 renal, 2.02 µM; in the assay with RPMI-8226 leukemia, 1.77 µM; in the assay on T-47D breast, 2.2 µM; with A498 renal it was 5.07 µM. For the same compound, the TGI was 9.8 µM in the assay on K-562 leukemia; 6.85 µM with ACHN renal; 4.92 µM in the assay on 786-0 renal; 4.44 µM with RPMI-8226 leukemia; 7.73 µM in the assay on T-47D breast; 28 µM in the assay with A498 renal.

These data come from PubChem BioAssay (NCI).
